“Also recorded” adds a separate entry of the source. Like-named read-outs stand apart in the source and are kept apart here.
How the values were obtained:
RR-EAE SJL/J mice = assay: Relapsing-remitting EAE (PLP139-151/CFA/PTX immunization), clinical scores, body weight, spinal cord immunofluorescence; assay type: in vivo
Description: (§1) Female SJL/J mice (Envigo, Germany), aged 10–12 weeks at immunization were used for study of relapsing-remitting EAE and female TCR^1640 mice for spontaneous RR-EAE [45]. Female C57BL6/J mice and LPAR2^−/− mice and LPAR2^+/+ littermates were used for the study of primary progressive EAE. LPAR2^−/− mice have a mixed C57BL6/J x Sv129 background with about 25% Sv129. Mice were housed at 3–5 mice per cage at constant room temperature (21 ± 1 °C) under a regular 12 h light/dark schedule. Food and water were available ad libitum. Animals were treated orally via the drinking water with FTY720 (fingolimod) at 0.5 mg/kg/d starting 3 days after immunization for preventive treatment. Monoclonal anti-Itga4 antibody treatment (natalizumab) in SJL/J mice consisted in 3 intraperitoneal injections (1x200 μg, 2x 150 μg) on day 11, 14 and 19. The LPAR2 agonist GRI 977143 was administered perorally in cornflakes soaked with 10% sucrose/10% DMSO in water with 100 μg/mouse/d of the drug starting 3d after immunization. Control animals received the respective vehicle. Oral bioavailability (F) of the LPAR2 agonist and basic kinetics were assessed by LC-MS/MS analysis of plasma concentrations. Tmax and Cmax were directly taken from the plasma concentration time courses. AUCs were calculated according to the linear trapezoidal rule. The clearance was calculated as Cl = Dose*F/AUCs and the half-life, t1/2 = ln2/λ, where λ is the terminal decay constant.
C57BL6/J and LPAR2 mice were immunized according to a standard protocol using the Hooke Kit™ MOG35-55/CFA emulsion PTX (EK-2110, Hooke Labs, St Lawrence, MA), which contains 200 μg myelin oligodendrocyte glycoprotein (MOG) 35–55 emulsified in 200 μl Complete Freund’s Adjuvant (CFA). The emulsion was injected subcutaneously at two sites followed by two intraperitoneal (i.p.) injections of 200 ng pertussis toxin (PTX) in phosphate buffered saline (PBS), the first 1–2 h after MOG35-55, and the second 24 h later. SJL mice were immunized using Hooke Kit™ PLP139-151/CFA emulsion PTX (EK-2120), which contains 200 μg myelin proteolipid protein (PLP) 139–151 in 200 μl CFA (Hooke Labs, US). Injections of the emulsion and PTX were done as described for C57BL6 mice.
EAE scores were assessed daily to evaluate the severity and extent of motor function deficits. Score 0, normal motor functions; score 0.5, distal paralysis of the tail; score 1, complete tail paralysis; score 1.5, mild paresis of one or both hind legs; score 2, severe paresis of hind legs; score 2.5, complete paralysis of one hind leg; score 3, complete paralysis of both hind legs; score 3.5, complete paralysis of hind legs and paresis of one front leg. Serum and tissues were sampled after the second peak, 35–36 days after immunization.
Mice were terminally anaesthetized with isoflurane and cardially perfused with cold 0.9% NaCl, followed by 4% paraformaldehyde (PFA) in 1x PBS for fixation. […]
Tiled images of individual sections were captured with equal filter and acquisition parameters to assure comparability independent of genotype or treatment and subsequently stitched to cover the complete ventral horn of the spinal cord. Iba1+ and CD11b + microglia/macrophages in the gray matter and white matter were quantified using the particle counter plugin of FIJI ImageJ. […] Three or more non-overlapping images of 3 mice were analyzed per group.

[1] = Plasma concentration time courses and basic pharmacokinetics of the LPAR2 agonist (LC-MS/MS); assay type: in vivo, SJL/J mice
Description: as §1

LPAR1, 2, 3 or 4 [2] = target: T1, LPAR1, 2, 3 or 4 (Homo sapiens, UniProt Q9HBW0); assay: LPA receptor activation panel in COS cells with heterologous expression of LPAR1, 2, 3 or 4 plus Gα15, mock controls; assay type: cell-based; details: COS cells with heterologous expression of LPAR1, 2, 3 or 4
T1 construct: expressed in transfected cells; host or cells: COS-1
Description: (§2) To study the activation profile of heterologously expressed LPA receptors, COS-1 cells were seeded in 96-well plates at a density of 50.000 cells/well. Next day, they were co-transfected with plasmids containing cDNA for a calcium-sensitive bioluminescent fusion protein between aequorin and GFP [3] and plasmids containing the indicated receptor cDNA or control (empty vector, mock) together with the promiscuous Gα15 [42] at a concentration of 50 ng/well by using FuGENE 6 reagent (Promega) according to manufacturer’s instructions. Forty-eight hours later, cells were loaded with 5 μM coelenterazine h (Invitrogen) in HBSS buffer containing 1.8 mM CaCl2 and 10 mM glucose for 2 h at 37 °C. Measurements were performed by using a luminometric plate reader (Flexstation 3) for 100 s following ligand stimulation. The area under each calcium transient was calculated by using SoftMaxPro software and expressed as area under the curve (AUC). The following lipids were used for stimulation: 1-Palmitoyl-LPA (LPA16:0), 1-oleoyl-LPA (LPA18:1), 1-stearoyl-LPA (LPA18:0), 1-lineoyl-LPA (LPA18:2), 1-arachidonoyl-LPA (LPA20:4). LPA16:0 and 18:1 were from Cayman, the others from AvantiPolar Lipids.

LPAR2 [3] = target: T2, LPAR2 (Homo sapiens, UniProt Q9HBW0); parameters: method as in not given; details: reported value; ref not given; cited from earlier work
T2 construct: plasmids containing the indicated receptor cDNA or control (empty vector, mock); expressed in transfected cells; host or cells: COS-1

LPAR2 [4] = target: T2, LPAR2; assay: LPA receptor activation, aequorin-GFP calcium luminescence in COS-1 cells co-transfected with Gα15; assay type: cell-based
Description: as §2

LPAR1, 2, 3 or 4 [5] = assay: LPA receptor activation panel in COS cells with heterologous expression of LPAR1, 2, 3 or 4 plus Gα15, mock controls; assay type: cell-based, human; details: for LPAR activation (agonist activity): calcium transient AUC, all heterologously expressed LPARs
Description: as §2

LPAR1 = target: T3, LPAR1 (Homo sapiens, UniProt Q92633); assay: LPA receptor activation, aequorin-GFP calcium luminescence in COS-1 cells co-transfected with Gα15; assay type: cell-based; details: compared with other LPAs
T3 construct: plasmids containing the indicated receptor cDNA or control (empty vector, mock); expressed in transfected cells; host or cells: COS-1
Description: as §2

autotaxin [6] = target: T4, autotaxin (Mus musculus, UniProt Q9R1E6); assay: LPA plasma concentration in naïve mice after autotaxin inhibitor; assay type: in vivo; details: i.p. 30 min before plasma sampling
T4 construct: from tissue; host or cells: living naïve mice, plasma sampled
Description: Quantitative LPA analysis was performed with liquid chromatography-electrospray ionization-tandem mass spectrometry (LC-ESI-MS/MS) with a hybrid triple quadrupole-ion trap QTrap 5500 mass spectrometer (AB Sciex, Germany) as described without knowledge of clinical data or treatment groups. Briefly, 2 cycles of liquid-liquid extraction of LPAs were done with 1-buthanol after adding the internal standard LPA17:0 (50 μl sample, 20 μl internal standard in 500 μl 1-butanol). The combined organic phases were dried under a gentle stream of nitrogen at 45 °C and subsequently re-dissolved in 200 μl methanol. A C18 column (Mercury 20 x 2 mm, 3 μm, 100 Å) and precolumn were used for chromatographic separation. A linear gradient was employed at a flow rate of 400 μl/min. Mobile phase A was water with ammonium formate 50 mM and formic acid (100:0.2, v/v) and mobile phase B acetonitrile/formic acid (100:0.1, v/v). The mass spectrometer operated in the negative ion mode and used multiple reaction monitoring (MRM). The mass transitions were m/z 409 → 79 (LPA 16:0), m/z 437 → 153 (LPA 18:0), m/z 431 → 79 (LPA 18:3) and m/z 457 → 153 (LPA 20:4) all with a dwell time of 50 ms. The internal standard method was used for quantification with Analyst Software V1.5 (Applied Biosystems, Germany). The calibration curve was linear over the range of 0.1–500 ng/ml and accuracy was >95%.

serum LPAs [7] = assay: Serum LPA concentrations (LC-MS/MS) in treated SJL/J EAE mice; assay type: in vivo; details: 35 days after immunization, vs vehicle treated EAE mice
Description: as §1, with “Monoclonal anti-Itga4 antibody treatment (natalizumab) in SJL/J mice consisted in 3 intraperitoneal injections (1x200 μg, 2x 150 μg) on day 11, 14 and 19. The LPAR2 agonist GRI 977143 was administered perorally in cornflakes soaked with 10% sucrose/10% DMSO in water with 100 μg/mouse/d of the drug starting 3d after immunization. Control animals received the respective vehicle.” left out, “Tmax and Cmax were directly taken from the plasma concentration time courses.” left out, “constant. […]” for “constant.”
(§3) Quantitative LPA analysis was performed with liquid chromatography-electrospray ionization-tandem mass spectrometry (LC-ESI-MS/MS) with a hybrid triple quadrupole-ion trap QTrap 5500 mass spectrometer (AB Sciex, Germany) as described without knowledge of clinical data or treatment groups. […] The internal standard method was used for quantification with Analyst Software V1.5 (Applied Biosystems, Germany). […]

serum LPAs [8] = assay: Serum LPA concentrations (LC-MS/MS) in medication subgroups of MS patients; assay type: in vivo, human; details: MS patients on prophylactic treatment vs no medication, beta interferon or other drugs
Description: Human samples and data were available from an observational cross-sectional investigation of 102 multiple sclerosis patients (31 men, 71 women, demographic data Table 1) consecutively recruited from outpatients and inpatients of the Department of Neurology of the Goethe University Hospital Frankfurt, Germany. Data and blood collection was part of the local bio-banking project (Neurological Department of the Goethe University, Frankfurt), adhered to the Declaration of Helsinki and was approved by the Ethics Committees of the Medical Faculty of the Goethe University. Cerebrospinal fluid samples were available from a previous study including 20 MS patients and 10 control patients with other non-inflammatory neurologic diseases. For long-term time course analyses additional 15 patients were recruited and observed up to 3.5 years. […]
as §3

autotaxin [9] = tested on: autotaxin; parameters: method as in PMID 19215222; details: cited from earlier work
autotaxin [10] = target: T4, autotaxin; assay: Autotaxin lyso-PLD activity ex vivo in primary splenocytes (C17-LPC to C17:0-LPA conversion); assay type: cell-based; details: splenocytes from treated EAE mice
Description: The spleens were removed and collected in a sterile wire mesh with 40 μm pore size over a Petri dish half filled with RPMI 1640 media and were gently pressed through the mesh using a 5 ml syringe plunger. The mesh was rinsed over the Petri dish with additional media to remove remaining cells. Disaggregated cells were transferred to a 15 ml Falcon tube and centrifuged at 2,000 rpm for 5 min and washed 2x in RPMI. The cell pellet was resuspended in RPMI, treated with erythrocyte lysis buffer for 10 min at room temperature, followed by centrifugation and resuspension in full medium (RPMI 1640 + 10% FBS + 1% Pen/Strep). Cells were plated in 6-well plates at 3x10^6/2 ml per well. Growth was stimulated with concanavalin A at 1 μg/ml. Cells were kept in an incubator at 37 °C, 95% humidity and 5% CO2 atmosphere and assays were performed after 2d in culture.
The lyso-PLD activity of ATX was measured in primary splenocytes of naïve and EAE mice. Cells were incubated for 2 h in 1.1 ml serum free RPMI 1640 medium and then stimulated for another 2 h with PMA 50 ng/ml and ionomycin 500 ng/ml in serum free medium before the autotaxin substrate, C17-LPC was added (100 μM in 1 μl in DMSO). […] C17-LPC is converted into the unnatural C17:0-LPA, which was analysed in supernatants and crude cell extracts by LC-MS/MS as described above. […]

T2 sequence (Q9HBW0 whole entry): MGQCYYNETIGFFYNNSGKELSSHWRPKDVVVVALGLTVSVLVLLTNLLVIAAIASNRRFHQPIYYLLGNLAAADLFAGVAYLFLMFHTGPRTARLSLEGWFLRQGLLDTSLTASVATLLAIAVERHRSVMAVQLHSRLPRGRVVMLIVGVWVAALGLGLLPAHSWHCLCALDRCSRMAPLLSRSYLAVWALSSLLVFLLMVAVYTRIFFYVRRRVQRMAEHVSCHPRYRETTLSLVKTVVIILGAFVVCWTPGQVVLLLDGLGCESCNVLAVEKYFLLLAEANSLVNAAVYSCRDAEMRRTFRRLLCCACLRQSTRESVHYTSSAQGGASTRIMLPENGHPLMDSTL
T3 sequence (Q92633 whole entry): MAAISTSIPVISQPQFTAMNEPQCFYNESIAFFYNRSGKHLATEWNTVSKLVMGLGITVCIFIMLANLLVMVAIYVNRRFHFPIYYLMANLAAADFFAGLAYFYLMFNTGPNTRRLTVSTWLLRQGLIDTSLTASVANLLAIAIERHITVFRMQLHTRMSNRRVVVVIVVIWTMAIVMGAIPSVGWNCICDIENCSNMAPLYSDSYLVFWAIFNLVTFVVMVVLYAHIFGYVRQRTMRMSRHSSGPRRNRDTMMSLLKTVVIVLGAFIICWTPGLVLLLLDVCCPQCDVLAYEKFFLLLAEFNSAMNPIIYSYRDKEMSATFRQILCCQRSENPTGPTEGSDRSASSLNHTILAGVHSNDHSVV
T1 sequence (Q9HBW0 whole entry): as the sequence (Q9HBW0 whole entry) above

Compound: O=C(O)c1ccccc1SCCCN1C(=O)c2cccc3cccc(c23)C1=O [GRI 977143]
- clinical EAE scores (RR-EAE SJL/J mice; 100 μg/mouse/d p.o. starting 3 d after immunization up to 35 d, vs vehicle): significantly lower clinical EAE scores
- body weight (RR-EAE SJL/J mice; 100 μg/mouse/d p.o. starting 3 d after immunization, vs vehicle): therapeutic efficacy was also evident
- infiltration of the white matter of the lumbar spinal cord with myeloid cells (CD11b positive particles) (RR-EAE SJL/J mice; 100 μg/mouse/d p.o., 36 days after immunization, vs vehicle): much reduced; also recorded: significantly reduced
- AUC ([1]; calculated from i.p. data): 4260 ng·h/mL
- CL ([1]; calculated from i.p. data): 23.5 mL/h
- Vd ([1]; calculated from i.p. data): 27.3 mL
- Tmax ([1]; plasma, after i.p. administration, SJL/J mice): 10 min
- LPAR2 specificity (LPAR1, 2, 3 or 4 [2]): confirmed the LPAR2 specificity
- EC50 (LPAR2 [3]): 1000 to 3000 nM
- EC50 (LPAR2 [4]; LPAR2 agonist, COS-1 cells): ~1000 nM

Compound: CCCCCCCC/C=C\CCCCCCCC(=O)OC[C@@H](O)COP(=O)(O)O [LPA18:1, 1-oleoyl-LPA]
- specificity (response of mock transduced cells) (LPAR1, 2, 3 or 4 [5]; mock-Gα15 transduced cells as control): most specific
- Emax (LPAR1): highest Emax values
- Emax (LPAR2 [4]; compared with other LPAs): highest Emax values

Compound: O=C(CCN1CCN(C(=O)OCc2cc(Cl)cc(Cl)c2)CC1)c1ccc2[nH]c(=O)oc2c1 [PF8380]
- LPA plasma concentration (autotaxin [6]): mainly reduced unsaturated LPAs

Compound: CCCCCCCCc1ccc(CCC(N)(CO)CO)cc1 [fingolimod]
- LPA serum concentration (serum LPAs [7]): additional LPA lowering effect
- clinical EAE scores (RR-EAE SJL/J mice; fingolimod 0.5 mg/kg/day in drinking water from 3 d after immunization): only minor effects
- LPA concentrations in serum (serum LPAs [8]): significantly lower
- autotaxin inhibition (autotaxin [9]): slow acting autotaxin inhibitor

Compound: CCCCCCCCCCCCCCCCOC[C@@H](O)COP(=O)(O)O [hexadecyl-LPA]
- LPAR activation (agonist activity) (LPAR1, 2, 3 or 4 [5]): no effects

Compound: CCCCCCCCCCCCCCCCCCOC[C@@H](O)COP(=O)(O)O [octadecyl-LPA]
- LPAR activation (agonist activity) (LPAR1, 2, 3 or 4 [5]): no effects

Compound: natalizumab: alpha-4 integrin (VLA4) targeting monoclonal antibody
- maximum stimulation effect of PMA/Ionomycin on ATX activity (autotaxin [10]): significantly reduced
- LPA serum concentration (serum LPAs [7]): significantly lower LPA levels
- clinical EAE scores (RR-EAE SJL/J mice; 3 i.p. injections at d11 (200 μg), d14, d19 (150 μg)): reduced the clinical scores
- LPA concentrations in serum (serum LPAs [8]): significantly lower
